Earlier results in patent US7803400B2, “Artificial low-density lipoprotein carriers for transport of substances across the blood-brain barrier” (Blanchette Rockefeller Neurosciences Institute, priority 2002, dated 2010).
Blank lines part the entries; values can stand above or below the compound they belong to.

Key:
[1] = tested on: PKC
[2] = target: T1, PKCC (Homo sapiens, UniProt Q02156)
T1 sequence (Q02156 1-737): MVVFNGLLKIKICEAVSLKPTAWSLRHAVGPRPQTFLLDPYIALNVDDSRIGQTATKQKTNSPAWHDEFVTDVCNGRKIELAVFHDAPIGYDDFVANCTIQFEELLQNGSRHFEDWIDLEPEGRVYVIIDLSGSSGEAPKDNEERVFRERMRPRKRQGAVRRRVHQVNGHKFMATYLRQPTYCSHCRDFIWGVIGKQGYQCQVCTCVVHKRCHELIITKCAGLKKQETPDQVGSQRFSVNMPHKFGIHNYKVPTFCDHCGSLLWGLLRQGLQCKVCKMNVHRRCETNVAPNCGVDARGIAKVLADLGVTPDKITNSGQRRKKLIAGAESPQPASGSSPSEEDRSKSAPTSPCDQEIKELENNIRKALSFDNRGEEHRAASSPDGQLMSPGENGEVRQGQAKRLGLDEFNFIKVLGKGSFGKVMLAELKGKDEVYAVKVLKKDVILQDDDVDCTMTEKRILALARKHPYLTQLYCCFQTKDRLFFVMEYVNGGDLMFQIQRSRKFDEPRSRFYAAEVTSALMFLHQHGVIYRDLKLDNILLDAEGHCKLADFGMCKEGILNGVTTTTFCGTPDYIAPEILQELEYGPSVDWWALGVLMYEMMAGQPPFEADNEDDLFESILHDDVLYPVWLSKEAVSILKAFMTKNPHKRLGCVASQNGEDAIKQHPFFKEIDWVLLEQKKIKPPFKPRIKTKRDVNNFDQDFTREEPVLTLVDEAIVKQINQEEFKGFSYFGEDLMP

[3] = tested on: cyclin dependent kinase 2 (Cdk2); conditions: at 5 ng/ml
[4] = tested on: PKC in K562 cells
[5] = tested on: murine leukemias and solid tumors

Compound: CCCCCCCC(=O)O[C@H]1/C(=C/C(=O)OC)C[C@H]2C[C@H](CO)OC(=O)C[C@H](O)CC3CCC[C@H](C[C@@H]4CCO[C@H](/C=C/C(C)(C)[C@]1(O)O2)O4)O3 [Analog 1]
potency relative to bryostatin-1 [1]: about 100 times
Ki ([1]; read-out: PKC Affin): 250 pM

concentration of maximal effect on PKC activation [2]: 100 nM
Compound: CCCCCC1CC1CC1CC1CCCCCCCC(=O)O (stereo not drawn) [DCP-LA, 2-[(2-pentylcyclopropyl)methyl]cyclopropaneoctanoic acid]

Compound: Gnidimacrin
inhibition of Cdk2 [3]: 100%
concentration at which it acts as PKC activator [4]: ≈ 3 nM
concentrations of potent antitumor activity [5]: 0.1 to 1 nM
